The text below walks through data of BindingDB's records for doi:10.1021/acschembio.5b00452 (Oregon Health & Science University, 2015).

Each structure is given as a SMILES string.

As usually defined, the IC50 is the concentration at which inhibition is half-maximal. A low value points to greater potency.

One experiment deals with T1, N-glycosylase/DNA lyase (Homo sapiens, UniProt O15527). The experiment is described as follows: Gel-based Cleavage Assay.
T1 sequence (O15527 whole entry): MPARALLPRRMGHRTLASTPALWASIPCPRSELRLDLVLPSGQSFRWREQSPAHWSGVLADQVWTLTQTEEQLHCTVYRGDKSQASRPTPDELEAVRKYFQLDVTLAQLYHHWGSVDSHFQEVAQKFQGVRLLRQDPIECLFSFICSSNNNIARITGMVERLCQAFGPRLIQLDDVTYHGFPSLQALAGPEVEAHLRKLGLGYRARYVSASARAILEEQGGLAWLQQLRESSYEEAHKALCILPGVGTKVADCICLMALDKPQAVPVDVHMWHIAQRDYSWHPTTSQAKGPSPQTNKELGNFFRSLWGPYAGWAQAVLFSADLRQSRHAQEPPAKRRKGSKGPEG
Conditions: not given
The procedure:
Substrate (5 µL, 50 nM) was added to bring the final volume to 10 µL. The reaction was incubated 30 min at 37 °C, quenched by the addition of 10 µL of formamide, and put on ice. […] Band intensities were quantified using the Image Studio Lite Software (LI-COR).
In the case of `NNC(=O)c1ccncc1` [4-pyridinecarbohydrazide(Isoniazid)], the half-inhibitory concentration (IC50) is greater than 50000 nM.
In turn, `O=C(NN=C1CCCCC1)c1cc2ccccc2cc1O` [N'‐Cyclohexylidene‐3‐hydroxynaphthalene‐2‐carbohydrazide (0158)] displayed an IC50 of 340 nM.
In the case of `NNC(=O)c1sc2cccc(Cl)c2c1Cl` [3,4‐Dichloro‐1‐benzothiophene‐2‐carbohydrazide (08)], the half-maximal inhibitory concentration (IC50) was 220 nM.

Another experiment addresses T1, N-glycosylase/DNA lyase. The experiment is described as follows: Fluorescence-based Assay. The conditions noted are these: pH 7.5; 37 °C. On the procedure:
The fluorescence-based assay outlined in Figure 2 a was performed in black, low volume 384-well plates with a fi nal volume of 10 µL per well. Nine uL of assay buffer (20 mM Tris-HCl, 100 mM KCl, 0.1% BSA, 0.01% Tween-20, pH 7.5) was added toeach well, followed by the addition of 1 uL of DMSO (control) or 50 µM compound in DMSO. […] Control wells containing just substrate or just substrate + enzyme were used to calculate Z values for each plate.
Take `CC(Oc1cccc(Cl)c1)C(=O)NN` (stereo not given) [2‐(3‐Chlorophenoxy)propanehydrazide (01)]: the half-inhibitory concentration (IC50) is 3380 nM.
The same measure, in the same setting: as for `NNC(=O)c1ccncc1` [4-pyridinecarbohydrazide(Isoniazid)], the figure is greater than 50000 nM; as for `CCCN1CCC(=NNC(=O)c2ccc(Cl)cc2Cl)CC1` [2,4‐Dichloro‐N'‐(1‐propylpiperidin‐4‐ ylidene)benzohydrazide (0181)], 4560 nM.
Regarding `COc1cc(C)c(S(=O)(=O)n2cc(C)nc2-c2ccccc2)cc1C` [1‐(4‐Methoxy‐2,5‐dimethylbenzenesulfonyl)‐4‐methyl‐2‐phenylimidazole (0105)], half-maximal inhibition (IC50) was put at 4150 nM.
For the compound `CCCC/C(C)=N\NC(=O)c1cccc(Br)c1` [3‐Bromo‐N'‐[(2Z)‐hexan‐2‐ylidene]benzohydrazide (0156)], the concentration for half-maximal inhibition (IC50) was found to be 2130 nM.
The same measure, in the same setting: in the case of `NNc1nncc2ccccc12` [NSC_3637] it was greater than 50000 nM; in that of `NNC(=O)c1sc2ccccc2c1Cl` [3‐Chloro‐1‐benzothiophene‐2‐carbohydrazide (O8-Cl)], 300 nM.
Still for that read-out and setting: in the case of `O=C(NN=C1CCCCC1)c1cc2ccccc2cc1O` [N'‐Cyclohexylidene‐3‐hydroxynaphthalene‐2‐carbohydrazide (0158)] it was 290 nM.
Still for that read-out and setting: in the case of `Cc1cc(OCC(=O)NN)cc(C)c1Cl` [2‐(4‐Chloro‐3,5‐dimethylphenoxy)acetohydrazide (0159)] it was 1530 nM.
Compound `NC(=O)c1ccc(Br)cc1` [4-Bromo-benzamide] showed an IC50 greater than 50000 nM.
`Cc1cc(C(=O)NNCc2ccccc2)no1` [ISOCARBOXAZID] gave a half-inhibitory concentration (IC50) greater than 50000 nM.
`NNC(=O)COc1cccc2ccccc12` [2‐(Naphthalen‐1‐yloxy)acetohydrazide (040)] displayed an IC50 of 1560 nM.
Compound `O=C(CCNNC(=O)c1ccncc1)NCc1ccccc1` [Nialamide] came in with a concentration for half-maximal inhibition (IC50) greater than 50000 nM.
On the same count and under the same terms, as for `NNC(=O)c1sc2cccc(Cl)c2c1Cl` [3,4‐Dichloro‐1‐benzothiophene‐2‐carbohydrazide (08)], the figure is 350 nM; as for `NNC(=O)c1ccc(Br)cc1` [Benzoylhydrazine, P‐bromo (0151-Hy)], 390 nM.
The compound `C=CCC/C(C)=N\NC(=O)c1cccc(Br)c1` [3‐Bromo‐N'‐[(2Z)‐hex‐5‐en‐2‐ylidene]benzohydrazide (0155)] came in with an IC50 of 3780 nM.
For `C/C(=N\NC(=O)c1cc2ccccc2cc1O)c1ccc2c(c1)OCO2` [N'‐[(1E)‐1‐(2H‐1,3‐benzodioxol‐5‐yl)ethylidene]‐3‐hydroxynaphthalene‐2‐carbohydrazide (0179)], it took 7170 nM to reach half-maximal inhibition (IC50).
